According to paper PMC3726224 (Developmental cell, 2013):

What was measured:
Assay type in all cases: biochemical
ALR = ALR (Homo sapiens, UniProt P55789); assay: Amplex Red-HRP sulfhydryl oxidase assay
Erv1 = molecular target: T1, Erv1 (Saccharomyces cerevisiae, UniProt P27882); assay: Amplex Red-HRP sulfhydryl oxidase assay with recombinant Erv1
T1 sequence (P27882 1-189): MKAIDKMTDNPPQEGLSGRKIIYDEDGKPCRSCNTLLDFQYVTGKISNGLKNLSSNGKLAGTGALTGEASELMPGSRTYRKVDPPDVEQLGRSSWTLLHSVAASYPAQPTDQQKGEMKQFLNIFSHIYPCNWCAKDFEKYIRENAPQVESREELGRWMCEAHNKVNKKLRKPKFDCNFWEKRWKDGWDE

Erv2 = molecular target: T2, Erv2 (Saccharomyces cerevisiae, UniProt Q12284); assay: Amplex Red-HRP sulfhydryl oxidase assay
T2 sequence (Q12284 1-196): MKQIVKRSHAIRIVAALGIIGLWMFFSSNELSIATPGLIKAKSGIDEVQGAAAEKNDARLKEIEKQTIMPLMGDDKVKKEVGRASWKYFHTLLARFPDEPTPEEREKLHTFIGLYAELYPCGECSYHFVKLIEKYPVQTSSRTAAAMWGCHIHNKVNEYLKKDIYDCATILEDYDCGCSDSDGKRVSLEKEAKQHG

ALR, sequence (P55789 whole entry): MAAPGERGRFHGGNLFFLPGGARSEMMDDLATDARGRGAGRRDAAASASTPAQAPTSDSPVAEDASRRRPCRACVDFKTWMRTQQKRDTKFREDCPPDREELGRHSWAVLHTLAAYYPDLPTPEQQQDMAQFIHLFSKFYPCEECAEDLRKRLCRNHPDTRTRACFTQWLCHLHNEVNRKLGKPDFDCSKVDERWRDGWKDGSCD

**Q.** `Oc1c(Cl)cc(Cl)cc1C=Nc1ccc(Nc2ccccc2)cc1` [MitoBloCK-6] was tested. Which IC50 (ALR) did it give?
**A.** The IC50 was 700 nM.

**Q.** What about the IC50 (Erv1) of the same molecule?
**A.** Its IC50 is 900 nM.

**Q.** What about the IC50 (Erv2) of the same molecule?
**A.** The IC50 was 1400 nM.
